{
  "source": "patent US9468597B1",
  "about": "“Stabilized L-ascorbic acid skin serum” (Dr. Perry Skindustries, LLC, priority 2013, dated 2016)",
  "origin": "cited, not measured here",
  "key": {"[1]": {"conditions": "without exposure to light"}, "skin": {"system": "skin", "conditions": "18% or 10% concentration placed under a patch for 4 days"}},
  "data": [
    {"smiles": "O=C1O[C@H]([C@@H](O)CO)C(O)=C1O", "note": "[vitamin C, L-ascorbic acid]", "values": [
      {"measurement": "half-life", "setting": "[1]", "result": "about 4 day"},
      {"measurement": "skin irritation", "setting": "skin", "result": "Neither an 18% nor a 10% concentration irritated the skin"}
    ]}
  ]
}
